Reference: US20240051936A1, “ISOINDOLINONE COMPOUNDS” (Monte Rosa Therapeutics, Inc., priority 2021, published 2024)
Where two headings read alike, the source gives them in different places.

Legend:
[1] = target: Full length wild-type cereblon CRBN (Homo sapiens (Human), UniProt Q96SW2); test: Fluorescence polarization (FP) assay, cereblon binding
Description: Compound activity was monitored in a fluorescence polarization (FP) homogeneous assay using 1-[5-({2-[2-(2-{[2-(2,6-dioxopiperidin-3-yl)-1,3-dioxo-2,3-dihydro-1H-isoindol-4-yl]oxy}acetamido)ethoxy]ethyl}carbamoyl)pentyl]-3,3-dimethyl-2-[(1E,3E)-5-[(2E)-1,3,3-trimethyl-5-sulfo-2,3-dihydro-1H-indol-2-ylidene]penta-1,3-dien-1-yl]-3H-indol-1-ium-5-sulfonate as a fluorescent probe. Unless otherwise stated, all reagents were purchased from Sigma Aldrich. Enzymatic reactions were conducted in Perkin-Elmer Black 384 well ProxiPlate Plus (catalogue no. 6008269) in 10 sL total volume. Full length wild-type cereblon CRBN (80.0 nM, 10 sL) was incubated in assay buffer containing 20 mM HEPES (pH 8.0), […], 0.5 mM TCEP and 0.05% Tween 20 in the presence or absence of compound (300 nL). Inhibitors were stored as 10 mM DMSO stocks in an inert environment (low humidity, dark, low oxygen, room temperature) using the Storage Pod System.
Compounds and DMSO were dispensed using the Echo E5XX (Labcyte Inc. USA) to give concentrations from 300 to 0.937 or 3000 to 9.3 nM in a 12 data point curve. […] Following incubation at room temperature for 30 min, the assay was initiated by dispensing the probe to a final concentration of 5 nM (2.5 nL of a 20 μM stock) using the Echo E5XX. FP was measured after a period of 12 hours using a Pherastar plate reader (BMG Labtech, Germany) exciting at 590 nm and measuring the amount of parallel and perpendicular light at 675 nm. The FP signal was subsequently normalized to the no-compound control (i.e., DMSO). Analysis and IC50 values were derived using Dotmatics (Dotmatics UK) software.

[2] = target: GSPT1 (Homo sapiens (Human), UniProt P15170+Q96SW2); test: Immunofluorescence assay for GSPT1 degradation in CAL-Si cells; format: cell-based; settings: CAL-Si cells
GSPT1, sequence (P15170 whole entry): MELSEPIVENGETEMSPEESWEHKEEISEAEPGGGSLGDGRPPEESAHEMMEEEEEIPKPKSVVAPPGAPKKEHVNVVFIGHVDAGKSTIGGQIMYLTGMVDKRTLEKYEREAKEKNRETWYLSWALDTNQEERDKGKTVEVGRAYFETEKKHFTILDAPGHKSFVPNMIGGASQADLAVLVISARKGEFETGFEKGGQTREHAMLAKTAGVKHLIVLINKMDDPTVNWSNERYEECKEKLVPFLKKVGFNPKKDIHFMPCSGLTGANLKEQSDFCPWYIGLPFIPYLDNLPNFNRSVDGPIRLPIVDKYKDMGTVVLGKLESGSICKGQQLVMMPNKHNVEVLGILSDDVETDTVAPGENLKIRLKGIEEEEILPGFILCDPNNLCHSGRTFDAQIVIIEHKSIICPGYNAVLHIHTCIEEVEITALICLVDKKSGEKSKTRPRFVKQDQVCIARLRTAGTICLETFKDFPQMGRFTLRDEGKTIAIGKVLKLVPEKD
GSPT1, sequence (Q96SW2 whole entry): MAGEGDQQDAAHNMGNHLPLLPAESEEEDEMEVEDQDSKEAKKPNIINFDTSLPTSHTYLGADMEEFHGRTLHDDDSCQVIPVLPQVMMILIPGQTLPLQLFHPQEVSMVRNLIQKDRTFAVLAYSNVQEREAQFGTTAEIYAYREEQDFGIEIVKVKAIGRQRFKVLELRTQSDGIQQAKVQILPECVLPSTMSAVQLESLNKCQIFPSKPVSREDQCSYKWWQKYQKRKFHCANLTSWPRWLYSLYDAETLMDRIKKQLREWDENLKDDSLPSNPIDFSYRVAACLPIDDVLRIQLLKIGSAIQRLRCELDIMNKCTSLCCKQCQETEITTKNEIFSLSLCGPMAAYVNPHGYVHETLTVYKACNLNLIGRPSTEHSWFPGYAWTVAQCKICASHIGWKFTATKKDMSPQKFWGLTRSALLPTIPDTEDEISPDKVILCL
GSPT1, sequence (Q16531 whole entry partner): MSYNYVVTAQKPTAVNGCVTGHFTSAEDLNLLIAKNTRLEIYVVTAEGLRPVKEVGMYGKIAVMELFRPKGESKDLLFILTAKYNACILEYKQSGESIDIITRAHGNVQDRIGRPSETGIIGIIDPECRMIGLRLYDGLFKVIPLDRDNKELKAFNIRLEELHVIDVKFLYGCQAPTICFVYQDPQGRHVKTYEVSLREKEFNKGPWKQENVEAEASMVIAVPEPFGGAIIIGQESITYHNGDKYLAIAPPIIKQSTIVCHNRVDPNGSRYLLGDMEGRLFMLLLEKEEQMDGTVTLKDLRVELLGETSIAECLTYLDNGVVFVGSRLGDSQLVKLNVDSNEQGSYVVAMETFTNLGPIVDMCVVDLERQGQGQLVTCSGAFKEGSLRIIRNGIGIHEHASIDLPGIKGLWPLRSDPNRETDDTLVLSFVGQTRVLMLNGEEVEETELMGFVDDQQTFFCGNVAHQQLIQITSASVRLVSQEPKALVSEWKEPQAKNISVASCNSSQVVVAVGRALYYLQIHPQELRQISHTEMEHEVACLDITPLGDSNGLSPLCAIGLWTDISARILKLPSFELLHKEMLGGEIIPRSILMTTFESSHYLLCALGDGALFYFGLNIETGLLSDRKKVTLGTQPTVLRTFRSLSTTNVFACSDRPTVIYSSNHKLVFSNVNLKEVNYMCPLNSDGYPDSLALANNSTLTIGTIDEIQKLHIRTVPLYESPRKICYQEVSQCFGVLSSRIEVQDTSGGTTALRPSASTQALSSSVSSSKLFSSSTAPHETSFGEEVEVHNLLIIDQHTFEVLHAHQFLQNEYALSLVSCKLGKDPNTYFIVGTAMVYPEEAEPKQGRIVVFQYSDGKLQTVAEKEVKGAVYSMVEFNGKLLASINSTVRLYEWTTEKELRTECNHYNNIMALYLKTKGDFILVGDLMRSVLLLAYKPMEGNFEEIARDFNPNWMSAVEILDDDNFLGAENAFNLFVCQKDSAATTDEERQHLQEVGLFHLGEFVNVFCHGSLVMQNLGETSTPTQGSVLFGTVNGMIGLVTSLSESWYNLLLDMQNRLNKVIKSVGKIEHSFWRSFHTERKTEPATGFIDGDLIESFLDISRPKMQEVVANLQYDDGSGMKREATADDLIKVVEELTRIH
Description: The compounds were tested in an immunofluorescence assay for their activity to bind to degrade GSPT1. CAL-Si cells were purchased from DSMZ (cat. Number ACC302), sub-cultured in 90% Dulbecco's MEM (4.5 g/L glucose, Gibco 11965)+10% heat inactivated FBS (BioConcept, 2-01F136I) and incubated at 37° C., 5% CO2. For the assay, imaging microtiterplate Cell Carrier 96 Ultra (Perkin Elmer 6055302) were pre-coated with Fibronectin (Sigma F085, 30 μl at 0.2 μg/ml) in PBS (100 μl, Gibco 14190) for 45 min at room temperature, rinsed with PBS and CAL-Si cells (30K cells/well) were plated and let to adhere overnight. Cells were treated with compounds typically using a serial dilution ranging from 30 μM to 0.1 nM for 6 hours. Compounds were stored at 10 mM DMSO stocks. Vehicle (DMSO), positive (CC-885, 10 μM) and rescue controls (positive control plus 0.2 μM bortezomib) were also included at this stage. Cells were subsequently rinsed with PBS and fixed in 10% Formalin solution (50 μl, Sigma HT5011)) for 20 mins at room temperature. Following three consecutive PBS washes (100 μl), cells were permeabilized in 0.1% Triton X-100 in PBS (Sigma 93443, 50 μl) for 15 mins at room temperature. Following three further PBS washes, 50 μl blocking buffer (1% BSA, Sigma A4503, in PBS) was added for 45 min for signal-to-noise reduction.
Primary antibody (human GSPT1, Sigma HPA052488) was diluted in blocking buffer (dil.1/300, 35 μl/well) and incubated with the cells overnight at 4° C. After three PBS washes, Alexa-fluor 488 coupled secondary antibodies (Invitrogen, A32731, dil.1/1000), Alexa-fluor 647-Phalloïdin (Invitrogen, A22287, dil.1/200) and DAPI (Thermo, #62248, dil.1/1000) were diluted in blocking buffer and incubated with the samples for 2 hours at room temperature. After three final PBS washes, samples were conserved in 100 μl PBS in the dark, until measurement. Image acquisition was performed on the Operetta High-Content Imager (Perkin-Elmer). Fluorescence intensity of Alexa-Fluor 488 (GSPT1), Alexa-Fluor 647 (Actin) and DAPI (Nucleus) were measured. For the determination of GSPT1 DC50 values, a custom algorithm implemented in the PerkinElmer image analysis software Harmony-Acapella® was developed. After user-defined setting of adjustment parameters, the analysis was run identically without human intervention for all image fields. DAPI staining of the nuclei was used to determine the location of cells using standard nuclei detection modules. Segmentation artifacts were removed by threshold-based filters for area, roundness and intensity. The outline of the cells was determined analogously from the sum of the normalized, smoothed DAPI and Actin channel, starting from each nucleus. The Alexa-Fluor 488 (GSPT1) signal intensity in each cell was finally measured, in order to obtain a Mean intensity per cell. GSPT1 degradation (DC50) was calculated after normalization to controls and data import in CDD vault Database, using non-linear regression.

[3] = wild-type CRBN 80.0 nM, probe 5 nM, FP measured after 12 hours, read-out: rFP IC50
[4] = treated 6 hours, read-out: Code, activity for GSPT1 degradation (DC50)
[5] = cereblon binding, bound, read-out: IC50 value
[6] = compounds with code A, read-out: DC50 value code

Full length wild-type cereblon CRBN, sequence (Q96SW2 whole entry): as the sequence (Q96SW2 whole entry) above

Row | SMILES | IC50 [1, 3] [nM] | DC50 [2, 4] [nM] | IC50 [1, 5] [nM] | DC50 [2, 6] [nM]
1 | COc1cc(COC(=O)Nc2cc(-c3ccccc3)ccn2)cc2c1CN(C1CCC(=O)NC1=O)C2=O (stereo not drawn) [Compound 56, (2-(2,6-dioxopiperidin-3-yl)-7-methoxy-3-oxoisoindolin-5-yl)methyl (4-phenylpyridin-2-yl)carbamate] | ≤ 600 | < 30 | < 600 | < 30
2 | COc1cc(COC(=O)Nc2ccc(C)c(Cl)c2)cc2c1CN(C1CCC(=O)NC1=O)C2=O (stereo not drawn) [Compound 5, (2-(2,6-dioxopiperidin-3-yl)-7-methoxy-3-oxoisoindolin-5-yl)methyl(3-chloro-4-methylphenyl)carbamate] | 600 to 1200 | < 30 | < 600 | < 30
3 | COc1cc(COC(=O)Nc2cccc(C(C)(C)C)c2)cc2c1CN(C1CCC(=O)NC1=O)C2=O (stereo not drawn) [Compound 54, (2-(2,6-dioxopiperidin-3-yl)-7-methoxy-3-oxoisoindolin-5-yl)methyl (3-(tert-butyl)phenyl)carbamate] | ≤ 600 | < 30 | < 600 | < 30
4 | COc1cc(COC(=O)Nc2ccc(-c3ccccc3)nc2)cc2c1CN(C1CCC(=O)NC1=O)C2=O (stereo not drawn) [Compound 45, (2-(2,6-dioxopiperidin-3-yl)-7-methoxy-3-oxoisoindolin-5-yl)methyl(6-phenylpyridin-3-yl)carbamate] | 600 to 1200 | < 30 | < 600 | < 30
5 | COc1cc(COC(=O)Nc2cc(F)cc(OC(F)(F)F)c2)cc2c1CN(C1CCC(=O)NC1=O)C2=O (stereo not drawn) [Compound 41, (2-(2,6-dioxopiperidin-3-yl)-7-methoxy-3-oxoisoindolin-5-yl)methyl (3-fluoro-5-(trifluoromethoxy)phenyl) carbamate] | 1200 to 1900 | 30 to 300 | < 600 | 
6 | O=C1CCC(N2Cc3c(F)cc(COC(=O)Nc4ccc(-c5ccccc5)nc4)cc3C2=O)C(=O)N1 (stereo not drawn) [Compound 8, (2-(2,6-dioxopiperidin-3-yl)-7-fluoro-3-oxoisoindolin-5-yl)methyl(6-phenylpyridin-3-yl)carbamate] | > 1900 | < 30 |  | < 30
7 | Cc1ccc(NC(=O)OCc2cc(F)c3c(c2)C(=O)N(C2CCC(=O)NC2=O)C3)cc1OC(F)F (stereo not drawn) [Compound 35, (2-(2,6-dioxopiperidin-3-yl)-7-fluoro-3-oxoisoindolin-5-yl) methyl (3-(difluoromethoxy)-4-methylphenyl)carbamate] | > 1900 | < 30 |  | < 30
8 | O=C1CCC(N2Cc3c(F)cc(COC(=O)Nc4ccc(-c5ccccc5F)nc4)cc3C2=O)C(=O)N1 (stereo not drawn) [Compound 18, (2-(2,6-dioxopiperidin-3-yl)-7-fluoro-3-oxoisoindolin-5-yl)methyl(6-(2-fluorophenyl)pyridin-3-yl)carbamate] | 1200 to 1900 | < 30 | < 600 | < 30
9 | O=C1CCC(N2Cc3c(F)cc(COC(=O)Nc4ccc(-c5ccccn5)cc4)cc3C2=O)C(=O)N1 (stereo not drawn) [Compound 11, (2-(2,6-dioxopiperidin-3-yl)-7-fluoro-3-oxoisoindolin-5-yl)methyl (4-(pyridin-2-yl)phenyl)carbamate] | ≤ 600 | < 30 | < 600 | < 30
10 | COc1cc(COC(=O)Nc2ccc3c(c2)OCC3(C)C)cc2c1CN(C1CCC(=O)NC1=O)C2=O (stereo not drawn) [Compound 37, (2-(2,6-dioxopiperidin-3-yl)-7-methoxy-3-oxoisoindolin-5-yl) methyl(3,3-dimethyl-2,3-dihydrobenzofuran-6-yl)carbamate] |  | < 30 | < 1200 | < 30

Further lines, results first:

Row | IC50 [1, 3] [nM] | DC50 [2, 4] [nM] | IC50 [1, 5] [nM] | DC50 [2, 6] [nM] | SMILES
11 | > 1900 | 30 to 300 |  |  | Cc1ccc(NC(=O)OCc2cc(C#N)c3c(c2)C(=O)N(C2CCC(=O)NC2=O)C3)cc1Cl (stereo not drawn) [Compound 2, (7-cyano-2-(2,6-dioxopiperidin-3-yl)-3-oxoisoindolin-5-yl)methyl (3-chloro-4-methylphenyl)carbamate]
12 | > 1900 | 30 to 300 |  |  | CC1(c2ccc(NC(=O)OCc3cc(F)c4c(c3)C(=O)N(C3CCC(=O)NC3=O)C4)cc2)CC1 (stereo not drawn) [Compound 13, (2-(2,6-dioxopiperidin-3-yl)-7-fluoro-3-oxoisoindolin-5-yl)methyl (4-(1-methylcyclopropyl)phenyl)carbamate]
13 | 600 to 1200 | 30 to 300 | < 600 |  | COc1cc(COC(=O)Nc2ccc(F)c(Cl)c2)cc2c1CN(C1CCC(=O)NC1=O)C2=O (stereo not drawn) [Compound 51, (2-(2,6-dioxopiperidin-3-yl)-7-methoxy-3-oxoisoindolin-5-yl)methyl(3-chloro-4-fluorophenyl)carbamate]
14 | 600 to 1200 | < 30 | < 600 | < 30 | CC1CCCCN1c1ccc(NC(=O)OCc2cc(F)c3c(c2)C(=O)N(C2CCC(=O)NC2=O)C3)cn1 (stereo not drawn) [Compound 16, (2-(2,6-dioxopiperidin-3-yl)-7-fluoro-3-oxoisoindolin-5-yl)methyl (6-(2-methylpiperidin-1-yl)pyridin-3-yl)carbamate]
15 | 600 to 1200 | < 30 | < 600 | < 30 | COc1cc(COC(=O)Nc2cc(F)cc(Cl)c2)cc2c1CN(C1CCC(=O)NC1=O)C2=O (stereo not drawn) [Compound 50, (2-(2,6-dioxopiperidin-3-yl)-7-methoxy-3-oxoisoindolin-5-yl)methyl(3-chloro-5-fluorophenyl)carbamate]
16 | ≤ 600 | > 300 | < 600 |  | COc1cc(COC(=O)Nc2cccc(OC3CC3)c2)cc2c1CN(C1CCC(=O)NC1=O)C2=O (stereo not drawn) [Compound 58, (2-(2,6-dioxopiperidin-3-yl)-7-methoxy-3-oxoisoindolin-5-yl)methyl (3-cyclopropoxyphenyl)carbamate]
17 | > 1900 | 30 to 300 |  |  | Cc1cc(C)cc(NC(=O)OCc2cc(F)c3c(c2)C(=O)N(C2CCC(=O)NC2=O)C3)c1 (stereo not drawn) [Compound 31, (2-(2,6-dioxopiperidin-3-yl)-7-fluoro-3-oxoisoindolin-5-yl)methyl (3,5-dimethylphenyl)carbamate]
18 | 600 to 1200 | < 30 |  | < 30 | COc1cc(COC(=O)Nc2cccc(OC(F)(F)F)c2)cc2c1CN(C1CCC(=O)NC1=O)C2=O (stereo not drawn) [Compound 55, (2-(2,6-dioxopiperidin-3-yl)-7-methoxy-3-oxoisoindolin-5-yl) methyl (3-(trifluoromethoxy)phenyl)carbamate]
19 | 600 to 1200 | < 30 | < 600 | < 30 | COc1cc(COC(=O)Nc2cc(Cl)cc(OC(F)F)c2)cc2c1CN(C1CCC(=O)NC1=O)C2=O (stereo not drawn) [Compound 49, (2-(2,6-dioxopiperidin-3-yl)-7-methoxy-3-oxoisoindolin-5-yl)methyl (3-chloro-5-(difluoromethoxy)phenyl)carbamate]
